Measured values from patent US9212130B2, “Heterocyclic derivative and pharmaceutical composition comprising the same” (SHIONOGI & CO., LTD., priority 2010, dated 2015).

What follows are compounds tested against human P2X3 receptor (Homo sapiens (Human), UniProt P56373) (assay: Evaluation of human P2X3 receptor inhibitory activity (ATP-induced Fluo-3 fluorescence, FDSS 3000)). Settings: C6BU-1 cell transfected with human P2X3 receptor gene.
Format: cell-based
Description: The plate was placed in High-Throughput Screening System FDSS 3000 (Hamamatsu Photonics K.K.). […] Five minutes after, 50 nM ATP solution (50 μL) prepared by dilution with the dilution buffer was dispensed through the built-in automatic dispenser, and the measurement of fluorescence intensity was continued for 3 min. For each well, the specific maximum fluorescence intensity was calculated as the ratio of the maximum fluorescence intensity after addition of the ATP solution to the fluorescence intensity at the starting of the measurement. […] FDSS software (Hamamatsu Photonics K.K.) was used for calculation of the specific maximum fluorescence intensity. IC50 was calculated using Microsoft Excel (Microsoft. Corporation) and XLfit (idbs Ltd.)
The aforementioned in mM, μM and nM are each means mmol/L, μmol/L and nmol/L, respectively.
In tables, μM means μmol/L.

human P2X3 receptor, sequence (P56373 whole entry): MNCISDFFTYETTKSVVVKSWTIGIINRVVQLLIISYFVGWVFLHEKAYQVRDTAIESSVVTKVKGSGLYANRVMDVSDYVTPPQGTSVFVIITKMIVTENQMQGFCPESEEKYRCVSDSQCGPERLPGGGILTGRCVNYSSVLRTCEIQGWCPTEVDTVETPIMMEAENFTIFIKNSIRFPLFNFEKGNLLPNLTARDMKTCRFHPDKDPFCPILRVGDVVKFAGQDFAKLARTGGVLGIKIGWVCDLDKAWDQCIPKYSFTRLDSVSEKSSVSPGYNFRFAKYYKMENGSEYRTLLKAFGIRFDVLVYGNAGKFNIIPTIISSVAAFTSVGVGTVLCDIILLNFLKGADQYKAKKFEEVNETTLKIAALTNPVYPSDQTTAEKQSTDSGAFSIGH

**Q.** Which IC50 does the source give for `CCCC(=O)Nc1cnc(Nc2ccc(OC(C)C)c(F)c2)n(Cc2ccc(Cl)cc2)c1=O` [I-260] here?
**A.** The IC50 was 15 nM.

**Q.** For `CCOC(=O)c1cn(Cc2ccc(Cl)cc2)c(Nc2ccc(OC(C)C)c(Cl)c2)nc1=O` [I-125], which IC50 is on record?
**A.** Its IC50 is 243 nM.

**Q.** How did the IC50 turn out when `CCOC(=O)/C=C/c1cnc(Nc2ccc(OC(C)C)c(F)c2)n(Cc2ccc(Cl)cc2)c1=O` [I-157] was run?
**A.** The IC50 was 589 nM.

**Q.** Which IC50 does the source give for `CCn1c(=O)cc(Nc2ccc(Oc3ccnc(C(=O)OC)c3)cc2)n(Cc2ccc(Cl)cc2)c1=O` [I-316] here?
**A.** Its IC50 is 9 nM.

**Q.** For `Cc1nc2ccc(Nc3nc(C)c(NC(=O)OC(C)(C)C)c(=O)n3Cc3ccc(Cl)cc3)cc2s1` [I-348], which IC50 is on record?
**A.** Its IC50 is 105 nM.

**Q.** With `CC(C)Oc1ccc(Nc2cc(=O)n(CC(=O)O)c(=O)n2Cc2ccc(Cl)cc2)cc1F` [I-105, 1-(4-chlorobenzyl)-6-(3-fluoro-4-isopropoxyphenylamino)-3-(hydroxycarbonylmethyl)pyrimidine-2,4(1H,3H)-dion] as the compound, how does the IC50 read?
**A.** Its IC50 is 412 nM.

**Q.** For `CC(C)Oc1ccc(Nc2nc(=O)c(C(=O)NC(CO)CO)cn2Cc2ccc(Cl)cc2)cc1F` [I-150], which IC50 is on record?
**A.** The IC50 was 120 nM.

**Q.** For `CCOC(=O)c1cnc(Nc2ccc(OC(C)C)c(Cl)c2)n(Cc2ccc(Cl)cc2)c1=O` [I-126], which IC50 is on record?
**A.** Its IC50 is 50 nM.

**Q.** How did the IC50 turn out when `CC(C)Oc1ccc(Nc2[nH]c(=O)n(C)c(=O)c2Cc2ccc(Cl)cc2)cc1F` [I-001] was run?
**A.** The IC50 was 901 nM.

**Q.** With `CC(C)Oc1ccc(Nc2ncc(NC(=O)c3cc[nH]c(=O)c3)c(=O)n2Cc2ccc(Cl)cc2)cc1F` [I-275] as the compound, how does the IC50 read?
**A.** Its IC50 is 11 nM.

**Q.** `CC(C)Oc1ccc(Nc2ncc(NC(=O)c3ccn(C)c(=O)c3)c(=O)n2Cc2ccc(Cl)cc2)cc1F` [I-279] was tested. Which IC50 did it give?
**A.** The IC50 was 139 nM.

**Q.** How did the IC50 turn out when `CC(C)Oc1ccc(Nc2ncc(C(=O)NNC(=O)OC(C)(C)C)c(=O)n2Cc2ccc(Cl)cc2)cc1F` [I-271] was run?
**A.** Its IC50 is 29 nM.

**Q.** With `CCc1c(C)nc(Nc2ccc3nc(C)sc3c2)n(Cc2ccc(Cl)cc2)c1=O` [I-351] as the compound, how does the IC50 read?
**A.** Its IC50 is 146 nM.

**Q.** With `CCOC(=O)CCC1CN(Cc2ccc(Cl)cc2)C(Nc2ccc(OC(C)C)c(Cl)c2)=NC1=O` (stereo not shown) [I-116] as the compound, how does the IC50 read?
**A.** Its IC50 is 315 nM.

**Q.** `CC(C)Oc1ccc(Nc2ncc(C(=O)NNC=O)c(=O)n2Cc2ccc(Cl)cc2)cc1F` [I-266] was tested. Which IC50 did it give?
**A.** The IC50 was 55 nM.

**Q.** `CC(C)Oc1ccc(Nc2ncc(NC(=O)C(CO)CO)c(=O)n2Cc2ccc(Cl)cc2)cc1F` [I-288] was tested. Which IC50 did it give?
**A.** Its IC50 is 17 nM.

**Q.** Which IC50 does the source give for `Cc1ccc(Oc2ccc(Nc3ncc(NC(=O)C(C)(C)O)c(=O)n3Cc3ccc(Cl)cc3)cc2)cn1` [I-295] here?
**A.** The IC50 was 2 nM.

**Q.** With `CC(C)Oc1ccc(Nc2ncc(NC(=O)CCO)c(=O)n2Cc2ccc(Cl)cc2)cc1F` [I-269] as the compound, how does the IC50 read?
**A.** The IC50 was 31 nM.

**Q.** With `COC(=O)CCNC(=O)c1c(O)[nH]/c(=N\c2ccc(OC(C)C)cc2)n(Cc2ccc(Cl)cc2)c1=O` [I-333, 1-(4-chlorobenzyl)-3-(2-methoxycarbonylethyl)carbamoyl-4-hydroxy-6-(4-isopropoxyphenylimino)-2,3-dihydro-pyrimidine-4-one] as the compound, how does the IC50 read?
**A.** The IC50 was 115 nM.

**Q.** With `CSc1ccc(Cn2c(Nc3ccc4nc(C)sc4c3)ncc(NC(=O)C3CCOCC3)c2=O)cc1` [I-312] as the compound, how does the IC50 read?
**A.** Its IC50 is 11 nM.

**Q.** `COC(=O)C(C)(C)Cn1c(=O)cc(Nc2ccc(OC(C)C)c(F)c2)n(Cc2ccc(Cl)cc2)c1=O` [I-020] was tested. Which IC50 did it give?
**A.** The IC50 was 28 nM.

**Q.** `Cc1nc2ccc(Nc3nc(=O)c(C(=O)NCCC#N)cn3Cc3ccc(Cl)cc3)cc2s1` [I-301] was tested. Which IC50 did it give?
**A.** Its IC50 is 123 nM.

**Q.** Which IC50 does the source give for `CCOC(=O)/C=C/c1cnc(Nc2ccc(OC(C)C)c(Cl)c2)n(Cc2ccc(Cl)cc2)c1=O` [I-132, 2-(3-chloro-4-isopropoxyphenylamino)-3-(4-chlorobenzyl)-5-(2-ethoxycarbonylethenyl) pyrimidine-4(3H)-one] here?
**A.** Its IC50 is 206 nM.

**Q.** With `COC(=O)CCCn1c(=O)cc(Nc2ccc3nc(C)sc3c2)n(Cc2ccc(Cl)cc2)c1=O` [I-352] as the compound, how does the IC50 read?
**A.** Its IC50 is 24 nM.

**Q.** `CC(C)Oc1ccc(Nc2nc(=O)c(C(=O)NCCO)cn2Cc2ccc(Cl)cc2)cc1F` [I-146, 1-(4-chlorobenzyl)-2-(3-fluoro-4-isopropoxyphenylamino)-5-[N-(2-hydroxyethyl)carbamoyl]pyrimidine-4(1H)-one] was tested. Which IC50 did it give?
**A.** Its IC50 is 383 nM.

**Q.** For `CC(C)Oc1ccc(Nc2ncc(NC(=O)CCC(=O)O)c(=O)n2Cc2ccc(Cl)cc2)cc1F` [I-231], which IC50 is on record?
**A.** The IC50 was 226 nM.

**Q.** Which IC50 does the source give for `CC(C)Oc1ccc(Nc2cc(=O)n(Cc3ccccc3)cc2C(=O)c2ccc(Cl)cc2)cc1Cl` [I-065, 4-(3-chloro-4-isopropoxyphenylamino)-1-benzyl-5-(4-chlorobenzoyl)pyridine-2(1H)-one] here?
**A.** The IC50 was 128 nM.

**Q.** Which IC50 does the source give for `Cc1nc2ccc(Nc3ncc(C)c(=O)n3Cc3ccc(Cl)cc3)cc2s1` [I-280] here?
**A.** The IC50 was 237 nM.

**Q.** How did the IC50 turn out when `O=C(Nc1cnc(Nc2ccc(Oc3cncc(F)c3)cc2)n(Cc2ccc(Cl)cc2)c1=O)C1CCOCC1` [I-245] was run?
**A.** Its IC50 is 0.8 nM.

**Q.** Which IC50 does the source give for `CC(C)Oc1ccc(Nc2ncc(NC(=O)C(C)(C)C#N)c(=O)n2Cc2ccc(Cl)cc2)cc1F` [I-290] here?
**A.** Its IC50 is 23 nM.

**Q.** With `COC(=O)C(C)(C)Cn1c(=O)cc(Nc2cccc(C(F)(F)F)c2)n(Cc2ccc(Cl)cc2)c1=O` [I-107] as the compound, how does the IC50 read?
**A.** Its IC50 is 51 nM.

**Q.** For `CC(C)Oc1ccc(/N=c2\[nH]c(O)c(NC(=O)C(C)C)c(=O)n2Cc2ccc(Cl)cc2)cc1` [I-341], which IC50 is on record?
**A.** Its IC50 is 681 nM.

**Q.** Which IC50 does the source give for `Cc1ccc(Cc2c(Nc3ccc(OC(C)C)cc3)[nH]c(=O)n(Cc3ccccc3)c2=O)cc1` [I-014] here?
**A.** The IC50 was 404 nM.

**Q.** With `CCOC(=O)c1c(C)nc(Nc2ccc3nc(C)sc3c2)n(Cc2ccc(Cl)cc2)c1=O` [I-345] as the compound, how does the IC50 read?
**A.** Its IC50 is 273 nM.

**Q.** For `Cc1ccc(Oc2ccc(Nc3ncc(NC(=O)C4COC(C)(C)OC4)c(=O)n3Cc3ccc(Cl)cc3)cc2)cn1` [I-294], which IC50 is on record?
**A.** The IC50 was 9 nM.

**Q.** Which IC50 does the source give for `CC(C)Oc1ccc(Nc2ncc(C(=O)N[C@@H](C)C(=O)O)c(=O)n2Cc2ccc(Cl)cc2)cc1F` [I-201] here?
**A.** Its IC50 is 229 nM.

**Q.** `CC(=O)Nc1cnc(Nc2ccc3nc(C)sc3c2)n(Cc2ccc(Cl)cc2)c1=O` [I-297] was tested. Which IC50 did it give?
**A.** Its IC50 is 112 nM.

**Q.** With `CC(C)Oc1ccc(Nc2ncc(C(=O)N(C)CCO)c(=O)n2Cc2ccc(Cl)cc2)cc1F` [I-156] as the compound, how does the IC50 read?
**A.** Its IC50 is 509 nM.

**Q.** `Cc1nc2ccc(Nc3ncc(Br)c(=O)n3Cc3ccc(Cl)cc3)cc2s1` [I-306] was tested. Which IC50 did it give?
**A.** Its IC50 is 207 nM.

**Q.** For `CCc1cnc(Nc2ccc(OC(C)C)c(F)c2)c(Oc2ccc(C)cc2)n1` [I-072, 5-ethyl-2-(3-fluoro-4-isopropoxyphenylamino)-3-(4-methylphenoxy)pyrazine], which IC50 is on record?
**A.** The IC50 was 749 nM.

**Q.** `O=C(Nc1cnc(Nc2ccc(Oc3cnc(Cl)c(F)c3)cc2)n(Cc2ccc(Cl)cc2)c1=O)C1CCOCC1` [I-311] was tested. Which IC50 did it give?
**A.** The IC50 was 4 nM.

**Q.** `CC(C)Oc1ccc(Nc2nc(OCCO)c3ccccc3c2C(=O)c2ccc(Cl)cc2)cc1F` [I-110, 4-(4-chlorobenzoyl)-3-(3-fluoro-4-isopropoxyphenylamino)-1-(2-hydroxyethoxy)isoquinoline] was tested. Which IC50 did it give?
**A.** Its IC50 is 405 nM.

**Q.** How did the IC50 turn out when `CCOC(=O)c1cn(Cc2ccccc2)c(=O)cc1Nc1ccc(OC(C)C)c(Nc2ccc(OC(C)C)c(Cl)c2)c1` [I-061] was run?
**A.** The IC50 was 748 nM.

**Q.** Which IC50 does the source give for `COCCC(=O)Nc1cn(Cc2ccc(Cl)cc2)c(Nc2ccc(OC(C)C)c(F)c2)nc1=O` [I-240] here?
**A.** Its IC50 is 417 nM.

**Q.** How did the IC50 turn out when `CC(C)Oc1ccc(Nc2ncc(NC(=O)C3CCOCC3)c(=O)n2Cc2ccc(Cl)cc2)cc1F` [I-234, 2-(3-fluoro-4-isopropoxyphenylamino)-3-(4-chlorobenzyl)-5-(tetrahydro-2H-pyrane-4-ylcarbonylamino)pyrimidine-4(3H)-one] was run?
**A.** The IC50 was 4 nM.

**Q.** Which IC50 does the source give for `CC(=O)OC(C)(C)C(=O)Nc1cnc(Nc2ccc3nc(C)sc3c2)n(Cc2ccc(Cl)cc2)c1=O` [I-358] here?
**A.** Its IC50 is 16 nM.

**Q.** Which IC50 does the source give for `CC(C)Oc1ccc(Nc2ncc(NCC3CCOCC3)c(=O)n2Cc2ccc(Cl)cc2)cc1F` [I-224] here?
**A.** Its IC50 is 511 nM.

**Q.** `Cc1nc2ccc(Nc3cc(=O)n(CCOC4CCCCO4)c(=O)n3Cc3ccc(Cl)cc3)cc2s1` (stereo not shown) [I-353] was tested. Which IC50 did it give?
**A.** The IC50 was 9 nM.

**Q.** `Cc1cc(=O)n(Cc2ccc(Cl)cc2)c(Nc2ccc3nc(C)sc3c2)n1` [I-343] was tested. Which IC50 did it give?
**A.** Its IC50 is 694 nM.
